Experimental data reported in US9210931B2, “Pesticidal compositions and processes related thereto” (Dow AgroSciences LLC, priority 2010, dated 2015).

Assays:
[1] = tested on: Sweetpotato whitefly-crawler (Bemisia tabaci) (BEMITA); assay: Insecticidal test for sweetpotato whitefly-crawler in foliar spray assay on cotton plants; type: in vivo; settings: 200 ppm foliar spray on cotton plants, graded after 8-9 days, Abbott-corrected % control, read-out: BEMITA % Ctrl @ 200 ppm
Method: Cotton plants grown in 3-inch pots, with 1 small (3-5 cm) true leaf, were used as test substrate. The plants were placed in a room with whitefly adults. Adults were allowed to deposit eggs for 2-3 days. After a 2-3 day egg-laying period, plants were taken from the adult whitefly room. Adults were blown off leaves using a hand-held Devilbiss sprayer (23 psi). Plants with egg infestation (100-300 eggs per plant) were placed in a holding room for 5-6 days at 82° F. and 50% RH for egg hatch and crawler stage to develop. Four cotton plants were used for each treatment. Compounds (2 mg) were dissolved in 1 mL of acetone solvent, forming stock solutions of 2000 ppm. The stock solutions were diluted 10× with 0.025% Tween 20 in H2O to obtain a test solution at 200 ppm. A hand-held Devilbiss sprayer was used for spraying a solution to both sides of cotton leaf until runoff. Reference plants (solvent check) were sprayed with the diluent only. Treated plants were held in a holding room for 8-9 days at approximately 82° F. and 50% RH prior to grading. Evaluation was conducted by counting the number of live nymphs per plant under a microscope. Insecticidal activity was measured by using Abbott's correction formula and presented in “Table 4. Biological Data for GPA (MYZUPE) and sweetpotato whitefly-crawler (BEMITA)” (see column “BEMITA”): Corrected % Control=100*(X−Y)/X • where • X=No. of live nymphs on solvent check plants • Y=No. of live nymphs on treated plants Pesticidally Acceptable Acid Addition Salts, Salt Derivatives, Solvates, Ester Derivatives, Polymorphs, Isotopes and Radionuclides

[2] = tested on: Green Peach Aphid (Myzus persicae) (MYZUPE); assay: Bioassay on green peach aphid (GPA), foliar spray on cabbage seedlings; type: in vivo; settings: 72 h, 200 ppm foliar spray on cabbage seedlings, graded after three days, Abbott-corrected % control, read-out: MYZUPE % Ctrl @ 200 ppm
Method: Certain molecules disclosed in this document were tested against GPA using procedures described in the following example. In the reporting of the results, the “Table 3: GPA (MYZUPE) and sweetpotato whitefly-crawler (BEMITA) Rating Table” was used (See Table Section).
Cabbage seedlings grown in 3-inch pots, with 2-3 small (3-5 cm) true leaves, were used as test substrate. The seedlings were infested with 20-50 GPA (wingless adult and nymph stages) one day prior to chemical application. Four pots with individual seedlings were used for each treatment. Test compounds (2 mg) were dissolved in 2 mL of acetone/methanol (1:1) solvent, forming stock solutions of 1000 ppm test compound. The stock solutions were diluted 5× with 0.025% Tween 20 in H2O to obtain the solution at 200 ppm test compound. A hand-held aspirator-type sprayer was used for spraying a solution to both sides of […] leaves until runoff. Reference plants (solvent check) were sprayed with the diluent only containing 20% by volume of acetone/methanol (1:1) solvent. Treated plants were held in a holding room for three days at approximately 25° C. and ambient relative humidity (RH) prior to grading. Evaluation was conducted by counting the number of live aphids per plant under a microscope. Percent Control was measured by using Abbott's correction formula (W. S. Abbott, “A Method of Computing the Effectiveness of an Insecticide” J. Econ. Entomol. 18 (1925), pp. 265-267) as follows. Corrected % Control=100*(X−Y)/X • where • X=No. of live aphids on solvent check plants and • Y=No. of live aphids on treated plants
Biological Data for GPA (MYZUPE) and sweetpotato whitefly-crawler (BEMITA)” (See Table Section).

Compound	melting point [°C]	inhibition at 200 ppm [1] [%]	inhibition at 200 ppm [2] [%]
Cc1nc(-c2cccnc2)cn1N(C)C(=O)C(C)C [Compound 1]	122 to 125	0 to 80	0 to 80
CSC(C)CC(=O)N(C)n1cc(-c2cccnc2)nc1C (centres unmarked) [Compound 2, N-Methyl-N-(2-methyl-4-pyridin-3-yl-imidazol-1-yl)-3-methylsulfanyl-butramide]	–	< 0	0 to 80
Cc1nc(-c2cccnc2)cn1N(C)C(=O)OC(C)(C)C [Compound 3, Methyl-(2-methyl-4-pyridin-3-yl-imidazol-1-yl)-carbamic acid tert-butyl ester]	–	0 to 80	0 to 80
Cc1nc(-c2cccnc2)c(C)n1NC(=O)OC(C)(C)C [Compound 4, (2,5-Dimethyl-4-pyridin-3-yl-imidazol-1-yl)-carbamic acid tert-butyl ester]	–	0 to 80	< 0
CC(=O)Nn1cc(-c2cccnc2)nc1C [Compound 5]	–	80 to 100	80 to 100
CC(=O)N(C)n1cc(-c2cccnc2)nc1C [Compound 6]	–	80 to 100	0 to 80
Cc1nc(-c2cccnc2)cn1N(C)C(=O)C(C)(C)C [Compound 7]	–	80 to 100	0 to 80
Cc1nc(-c2cccnc2)cn1N(C)C(=O)CC(F)(F)F [Compound 8]	130.9 to 131.5	80 to 100	0 to 80
CCCCC(=O)N(C)n1cc(-c2cccnc2)nc1C [Compound 9]	–	80 to 100	0 to 80
CSCCC(=O)N(C)n1cc(-c2cccnc2)nc1C [Compound 10]	–	80 to 100	0 to 80
Cc1nc(-c2cccnc2)cn1N(CC1CC1)C(=O)C(C)(C)C [Compound 11]	–	80 to 100	0 to 80
Cc1nc(-c2cccnc2)cn1N(CC1CC1)C(=O)CC(F)(F)F [Compound 12]	–	80 to 100	< 0
CCN(C(=O)C(C)(C)C)n1cc(-c2cccnc2)nc1C [Compound 13]	–	0 to 80	< 0
CCN(C(=O)CC(F)(F)F)n1cc(-c2cccnc2)nc1C [Compound 14]	–	< 0	< 0
CCCCC(=O)N(CC1CC1)n1cc(-c2cccnc2)nc1C [Compound 15]	–	80 to 100	0 to 80
CSCC(C)(C)C(=O)N(C)n1cc(-c2cccnc2)nc1C [Compound 16]	–	< 0	< 0
CCN(C(=O)C(C)C)n1cc(-c2cccnc2)nc1C [Compound 17]	–	0 to 80	0 to 80
CCN(C(=O)CCSC)n1cc(-c2cccnc2)nc1C [Compound 18]	–	80 to 100	80 to 100
CCCCC(=O)N(CC)n1cc(-c2cccnc2)nc1C [Compound 19]	–	80 to 100	0 to 80
Cc1nc(-c2cccnc2)cn1N(CC1CC1)C(=O)C(C)C [Compound 20]	–	< 0	0 to 80
CSCCC(=O)N(CC1CC1)n1cc(-c2cccnc2)nc1C [Compound 21]	–	80 to 100	0 to 80
Cc1nc(-c2cncc(F)c2)cn1N(C)C(=O)C(C)C [Compound 22]	–	80 to 100	0 to 80
CSCCC(=O)N(C)n1cc(-c2cncc(F)c2)nc1C [Compound 23]	–	80 to 100	80 to 100
CCN(C(=O)C(C)C)n1cc(-c2cncc(F)c2)nc1C [Compound 24]	–	0 to 80	0 to 80
CCN(C(=O)CCSC)n1cc(-c2cncc(F)c2)nc1C [Compound 25]	–	80 to 100	0 to 80
Cc1nc(-c2cncc(F)c2)cn1N(CC1CC1)C(=O)C(C)C [Compound 26]	–	0 to 80	0 to 80
CSCCC(=O)N(CC1CC1)n1cc(-c2cncc(F)c2)nc1C [Compound 27]	–	80 to 100	0 to 80
CC(=O)Nn1cc(-c2cccnc2)nc1Cl [Compound 39, N-(2-Chloro-4-(pyridin-3-yl)-1H-imidazol-1-yl)acetamide]	129 to 139	–	–
CCN(C(=O)OC(C)(C)C)n1cc(-c2cccnc2)nc1Cl [Compound 41, tert-Butyl (2-chloro-4-(pyridin-3-yl)-1H-imidazol-1-yl)(ethyl)carbamate]	–	80 to 100	0 to 80
